From US6265402A, “Use of 2-phenylmorpholin-5-one derivatives” (Nikken Chemicals Co., Ltd., priority 1996, dated 2001)

How the values were obtained:
Type IV PDE = Type IV PDE inhibitory activity; type: biochemical; conditions: Type IV PDE partially purified from rat neutrophils; 3H-cAMP substrate, 30° C., 30 minutes
Protocol: Type I, III, IV, and V PDE isozymes were prepared to study the PDE inhibitory activities of and selectivities with the compound of the invention [Trends Pharmacol Sci., 12, 19-27 (1992)]. Type I PDE was purchased from Sigma Corp. Type III, IV, and V PDE isozymes were partially purified from platelets (Type III and V) or neutrophils (Type IV) collected from rats. Each enzyme source was homogenized in a buffer (pH 6.5) containing 20 mM bisTris, 2 mM EDTA (i.e., ethylenediamine tetraacetate), 0.1 mM PMSF (i.e., phenylmethylsulfonyl fluoride), 5 mM 2-mercaptoethanol, 0.001 mM pepstatin and 0.01 mM leupeptin and was centrifuged at 30000×G for 30 minutes to obtain a supernatant, which was applied to an ion exchange column (Q-sepharose First Flow, Pharmacia Corp.) and was eluted with 0 to 1M sodium acetate. Partially purified isozymes were identified by observing the effects by conventional inhibitors.
Each PDE isozyme and the test compound dissolved in DMSO (i.e., dimethyl sulfoxide) were added to 50 mM Tris-HCl buffer containing 5 mM magnesium chloride. ^3 H-cAMP (for type III and IV PDE) or ^3 H-cGMP (for type I and V PDE) were added as substrates and were reacted at 30° C. for 30 minutes. The reaction was terminated by placing the test tube in boiling water of 100° C. for 5 minutes. The nucleotides formed by PDE were broken down by 5'-nucleotidase to ^3 H-adenosine or 3H-guanosine. The unreacted substrate and reaction product were separated through an ion-exchange column (i.e., QAE sephadex, Pharmacia Corp.) The eluted ^3 H-nucleoside was measured for its radioactivity by a liquid scintillation counter. The inhibitory activities of the compound of the present invention are shown by the IC50 value (M). Further, the inhibitory activities of the test samples against Type I, III, and V are 1/10 or less than that against type IV.

rat neutrophils = assay: Inhibitory action of super oxide anion release from rat neutrophils; type: cell-based; conditions: Neutrophil, stimulation with 0.3 μM calcium ionophore A23187, chemiluminescence, Lusigenin
Protocol: Inhibitory effects on activity of rat neutrophils
The release of super oxide anions was measured so as to study the inhibitory effects of the compound of the present invention on inflammatory leukocytes, that is, neutrophils.
Blood sample was collected from Wister rats anesthetized with ether. It was superposed on a blood cell separation solution (Polymorphoprep 1.113, made by Naicomed Farm), and the neutrophils were separated by centrifugation. The neutrophils were resuspended in a Hank's balanced salt solution at a concentration of 0.5×10^4 cells/ml 0.1 mM of Lusigenin and the test substance dissolved in DMSO were added to 2 ml of the cell-suspension. The chemiluminescence generated by stimulation of 0.3 μM calcium ionophore A23187 was measured by a chemiluminescence reader so as to evaluate the release of super oxide anions.

[1] = system: antigen-induced bronchospasms; assay: Inhibitory effect on Antigen-Induced Bronchospasm (Anti-Asthmatic action); type: in vivo; conditions: Cavia porcellus; Hartley male guinea pig sensitized with Ovalbumin; intravenous, 10 minutes before 0.2 mg/kg OA i.v.; Konzett-Roessler method; read-out: Action for suppressing antigen-induced bronchospasms ED50
Protocol: Inhibitory effect on Antigen-Induced Bronchospasm (Anti-Asthmatic action)
A Hartley male guinea pig was sensitized by intramuscular administration of 35 mg Ovalbumin (OA) on first day and fourth day. A tracheal canula was introduced in the guinea pig anesthetized with pentobarbital and artificial ventilation was performed 25 to 29 days after the first sensitization. The overflow of the ventilation was measured by the Konzett-Roessler method while 0.2 mg/kg OA were administered intravenously. The test compound was dissolved in polyethylene glycol 400 and intravenously administered 10 minutes before administration of the antigens.

| Compound | IC50 (Type IV PDE) [µM] | IC50 (rat neutrophils) [µM] | ED50 [1] [mg/kg] |
| --- | --- | --- | --- |
| COc1ccc(C2CNC(=O)CO2)cc1OC1CCCC1 (stereo not drawn) [Compound No. 2, 2-(3-cyclopentyloxy-4-methoxyphenyl)morpholin-5-one] | 1.5 | 5.8 | 0.48 |
| COc1ccc(C2(C)CNC(=O)CO2)cc1OC (stereo not drawn) [Compound No. 9, 2-(3,4-dimethoxyphenyl)-2-methylmorpholin-5-one] | 16 | 1.6 |  |
| COc1ccc(C2CNC(=O)CO2)cc1OC (stereo not drawn) [Compound No. 1, 2-(3,4-dimethoxyphenyl)morpholin-5-one] | 37 | 29 |  |
| CCCCOc1cc(C2CNC(=O)CO2)ccc1OC (stereo not drawn) [Compound No. 5, 2-(3-butoxy-4-methoxyphenyl)morpholin-5-one] | 12 |  | 3.6 |
| COc1ccc(C2CNC(=O)CO2)cc1OCC1(C)CC1 (stereo not drawn) [Compound No. 35, 2-[3-[(1-methylcyclopropyl)methoxy]-4-methoxyphenyl]morpholin-5-one] | 1.3 |  | 6.22 |
| COc1ccc(C2CNC(=O)CO2)cc1OCC1CCC1 (stereo not drawn) [Compound No. 38, 2-(3-cyclobutylmethoxy-4-methoxyphenyl)morpholin-5-one] | 4.6 |  | 7.83 |
| COc1ccc(C2CN(C)C(=O)CO2)cc1OC1CCCC1 (stereo not drawn) [Compound No. 14, 2-(3-cyclopentyloxy-4-methoxyphenyl)-4-methylmorpholin-5-one] | 0.31 |  | 2.1 |
| COc1ccc(C2CNC(=O)CO2)cc1OCC1CCCC1 (stereo not drawn) [Compound No. 36, 2-(3-cyclopentylmethoxy-4-methoxyphenyl)morpholin-5-one] | 6.9 |  | 1 |
| COc1ccc(C2CNC(=O)CO2)cc1OCC1CC1 (stereo not drawn) [Compound No. 8, 2-(3-cyclopropylmethoxy-4-methoxyphenyl)morpholin-5-one] | 2.5 |  | 4.31 |
| COc1ccc(C2CN(Cc3ccc(Br)cc3)C(=O)CO2)cc1OC1CCCC1 (stereo not drawn) [Compound No. 13, 4-(4-bromobenzyl)-2-(3-cyclopentyloxy-4-methoxyphenyl)morpholin-5-one] | 1.8 | 1.4 |  |
